pKd: −log10 of the molar value.

The target in experiment [1] is Src kinase SH3 domain protein (Homo sapiens (Human), UniProt P12931). As to the kind of experiment: Surface plasmon resonance (SPR) determination of dissociation constants with SH3 protein. The format is binding. The note with it: SH3 protein coupled to CM5 chip. A general note: SPR reads the build-up and loss of mass on a sensor chip optically.
Experiment [2] concerns platelets on solid phase fibrinogen. As to the kind of experiment: Effect of compound on platelet stretching on solid phase fibrinogen. The format is cell-based. The settings on record: 1 h, washed platelets, incubated 60 min at 37° C., read-out: Concentration range for compounds that inhibit platelet stretching on fibrinogen.

Src kinase SH3 domain protein, sequence (P12931 whole entry, looked up, the tested form may be a part): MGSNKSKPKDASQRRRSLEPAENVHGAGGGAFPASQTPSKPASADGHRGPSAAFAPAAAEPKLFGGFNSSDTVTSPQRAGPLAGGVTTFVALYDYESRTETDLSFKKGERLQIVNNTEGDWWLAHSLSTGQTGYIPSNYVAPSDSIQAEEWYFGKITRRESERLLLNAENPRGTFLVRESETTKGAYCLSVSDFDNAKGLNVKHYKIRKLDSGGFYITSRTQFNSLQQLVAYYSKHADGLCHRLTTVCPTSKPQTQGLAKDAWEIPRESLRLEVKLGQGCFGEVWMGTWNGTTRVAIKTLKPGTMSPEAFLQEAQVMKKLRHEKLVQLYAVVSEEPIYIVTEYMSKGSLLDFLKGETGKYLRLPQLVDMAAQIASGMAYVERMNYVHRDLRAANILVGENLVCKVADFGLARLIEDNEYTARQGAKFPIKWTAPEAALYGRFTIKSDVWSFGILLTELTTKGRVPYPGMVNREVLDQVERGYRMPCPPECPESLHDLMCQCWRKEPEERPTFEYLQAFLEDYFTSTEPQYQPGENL

For `CCOC(=O)c1c(CNC(=N)N)sc2cc(-c3cccc4ccccc34)c(OC3CCCCC3)cc12` [SYY-C127], in experiment [1], the pKd (in general, the negative decadic logarithm of the Kd, by convention in mol/L) is > 6.00. Also, the minimal effective concentration in experiment [2] lay in the range of 10 to 100 µM.
For `CCOC(=O)c1c(CNC(=N)N)sc2cc(-c3cccc4ccccc34)c(Oc3ccccc3)cc12` [SYY-C128], in that order: 4.00 to 5.00 and 100 to 250 µM.
Consider `CCOC(=O)c1c(CNC(=N)N)sc2cc(-c3cccc4ccccc34)c(Oc3ccncc3)cc12` [SYY-C129], for which the negative logarithm of the Kd (pKd) in experiment [1] was > 6.00. Besides, the minimal effective concentration in experiment [2] lay within 10 to 100 µM.
For `CCOC(=O)c1c(CNC(=N)N)sc2cc(-c3cccc4ccccc34)c(C3=CCCc4ccccc43)cc12` [SYY-C130], in that order: 4.00 to 5.00 and 100 to 250 µM.
For `CCOC(=O)c1c(CNC(=N)N)sc2cc(-c3cccc4ccccc34)c(C3CCCc4ccccc43)cc12` (stereo not shown) [SYY-C131], in that order: 4.00 to 5.00 and 100 to 250 µM.

The values are drawn from patent US20250289812A1, “COMPOUND FOR TREATING THROMBOTIC DISEASES” (SHANGHAI INSTITUTE OF MATERIA MEDICA, CHINESE ACADEMY OF …, priority 2020, published 2025).
